Several values for one entry are separate records, joined by “and”; a condition that tells them apart may be missing. Identical values can stand only once. ± gives the uncertainty stated by the source.
Test: xn = mol fraction of the nth substance listed

CC[n+]1ccn(C)c1.F[B-](F)(F)F + CS(C)=O
Conditions | electrical conductivity | viscosity [mPa·s]
293.15 K, 100 kPa, x2 = 0.4781 | – | 19.1 ± 1.9
298.1 K, 100 kPa, x1 = 0.021 | 0.55 S/m and 0.79 S/m | –
298.1 K, 100 kPa, x1 = 0.218 | 1.77 ± 0.07 S/m | –
298.1 K, 100 kPa, x1 = 0.381 | 1.56 ± 0.06 S/m | –
298.1 K, 100 kPa, x1 = 0.623 | 1.37 ± 0.06 S/m | –
298.15 K, 100 kPa, x2 = 0.4098 | – | 19.1 ± 1.9
303.15 K, 100 kPa, x2 = 0.7866 | – | 4.91 ± 0.49
303.15 K, 101 kPa, x2 = 0.2996 | – | 17.26 ± 0.25
303.15 K, 101 kPa, x2 = 0.6002 | – | 8.52 ± 0.12
303.15 K, 101 kPa, x2 = 0.7996 | – | 4.395 ± 0.058
313.15 K, 100 kPa, x2 = 0 | – | 24.8 ± 2.5
313.15 K, 100 kPa, x2 = 0.2931 | – | 15.4 ± 1.5
313.15 K, 101 kPa, x2 = 0.2996 | – | 12.88 ± 0.19
323.15 K, 101 kPa, x2 = 0.4 | – | 8.2 ± 0.12
323.15 K, 101 kPa, x2 = 0.9002 | – | 1.996 ± 0.026
333.15 K, 101 kPa, x2 = 0.9002 | – | 1.71 ± 0.023
343.15 K, 100 kPa, x2 = 0 | – | 11.7 ± 1.2
343.15 K, 100 kPa, x2 = 0.2931 | – | 7.6 ± 0.76
343.15 K, 100 kPa, x2 = 0.8959 | – | 1.61 ± 0.16
353.15 K, 100 kPa, x2 = 0.4781 | – | 4.48 ± 0.45

C[N+](C)(C)Cc1ccccc1.[Cl-] + O=C([O-])c1ccccc1O.[Na+] + O
viscosity [mPa·s], 100 kPa
Conditions | 298.15 K | 303.15 K | 308.15 K | 313.15 K | 318.15 K
x1 = 9.698e-05, x2 = 0.001545 | 0.924 ± 0.02 | 0.833 ± 0.018 | 0.75 ± 0.017 | 0.651 ± 0.015 | 0.564 ± 0.013
x1 = 9.701e-05, x2 = 0.00127 | 0.916 ± 0.02 | 0.827 ± 0.018 | 0.744 ± 0.017 | 0.648 ± 0.015 | 0.561 ± 0.013
x1 = 9.703e-05, x2 = 0.0009982 | 0.91 ± 0.02 | 0.821 ± 0.018 | 0.739 ± 0.016 | 0.642 ± 0.014 | 0.557 ± 0.013
x1 = 9.706e-05, x2 = 0.0007245 | 0.905 ± 0.02 | 0.816 ± 0.018 | 0.734 ± 0.016 | 0.637 ± 0.014 | 0.551 ± 0.013
x1 = 9.709e-05, x2 = 0.0004525 | 0.9 ± 0.02 | 0.811 ± 0.018 | 0.729 ± 0.016 | 0.633 ± 0.014 | 0.547 ± 0.013
x1 = 9.711e-05, x2 = 0.0001803 | 0.896 ± 0.02 | 0.807 ± 0.018 | 0.725 ± 0.016 | 0.629 ± 0.014 | 0.543 ± 0.012
x1 = 0.0002915, x2 = 0.001548 | 0.926 ± 0.02 | 0.836 ± 0.018 | 0.753 ± 0.017 | 0.648 ± 0.015 | 0.56 ± 0.013
x1 = 0.0002916, x2 = 0.001 | 0.915 ± 0.02 | 0.824 ± 0.018 | 0.742 ± 0.017 | 0.639 ± 0.014 | 0.552 ± 0.013
x1 = 0.0002916, x2 = 0.001272 | 0.921 ± 0.02 | 0.83 ± 0.018 | 0.747 ± 0.017 | 0.644 ± 0.015 | 0.556 ± 0.013
x1 = 0.0002917, x2 = 0.0007258 | 0.909 ± 0.02 | 0.819 ± 0.018 | 0.736 ± 0.016 | 0.635 ± 0.014 | 0.547 ± 0.013
x1 = 0.0002918, x2 = 0.0004533 | 0.903 ± 0.02 | 0.814 ± 0.018 | 0.732 ± 0.016 | 0.63 ± 0.014 | 0.544 ± 0.012
x1 = 0.0002919, x2 = 0.0001807 | 0.898 ± 0.02 | 0.809 ± 0.018 | 0.727 ± 0.016 | 0.625 ± 0.014 | 0.539 ± 0.012
x1 = 0.0004867, x2 = 0.001551 | 0.932 ± 0.02 | 0.843 ± 0.019 | 0.759 ± 0.017 | 0.664 ± 0.015 | 0.577 ± 0.013
x1 = 0.0004868, x2 = 0.001275 | 0.926 ± 0.02 | 0.836 ± 0.018 | 0.753 ± 0.017 | 0.659 ± 0.015 | 0.572 ± 0.013
x1 = 0.0004869, x2 = 0.001002 | 0.919 ± 0.02 | 0.831 ± 0.018 | 0.748 ± 0.017 | 0.654 ± 0.015 | 0.568 ± 0.013
x1 = 0.0004871, x2 = 0.0007272 | 0.914 ± 0.02 | 0.825 ± 0.018 | 0.743 ± 0.017 | 0.648 ± 0.015 | 0.563 ± 0.013
x1 = 0.0004872, x2 = 0.0004542 | 0.907 ± 0.02 | 0.82 ± 0.018 | 0.737 ± 0.016 | 0.644 ± 0.015 | 0.558 ± 0.013
x1 = 0.0004873, x2 = 0.000181 | 0.903 ± 0.02 | 0.815 ± 0.018 | 0.732 ± 0.016 | 0.64 ± 0.014 | 0.554 ± 0.013

CC[n+]1ccn(C)c1.O=S(=O)([N-]S(=O)(=O)C(F)(F)F)C(F)(F)F + O=S(=O)([O-])C(F)(F)F.[Li+]
101 kPa, x1 = 1
Conditions | electrical conductivity [S/m]
288.15 K | 0.611 ± 0.061
298.15 K | 0.883 ± 0.089
333.15 K | 2.18 ± 0.22

CC[n+]1ccn(C)c1.O=S(=O)([N-]S(=O)(=O)C(F)(F)F)C(F)(F)F + c1ccccc1
100 kPa
Conditions | viscosity [mPa·s]
298.15 K, x2 = 0.135 | 25.2 ± 1.3
298.15 K, x2 = 0.339 | 15.64 ± 0.84
318.15 K, x2 = 0.471 | 6.8 ± 0.4
328.15 K, x2 = 0 | 13.68 ± 0.74
328.15 K, x2 = 0.339 | 7.26 ± 0.42

CC[n+]1ccn(C)c1.O=S(=O)([N-]S(=O)(=O)C(F)(F)F)C(F)(F)F + OCCOCCOCCOCCO
Conditions | viscosity [mPa·s]
298.15 K, 101 kPa, x2 = 0 | 32.3 ± 0.7

Source: the CheMixHub ionic liquid set
